Test results as given in ChEMBL document CHEMBL1914387, “Combining symmetry elements results in potent naphthyridinone (NTD) HIV-1 integrase inhibitors” (Bioorg Med Chem Lett, 2011).

How the values were obtained:
[1] = molecular target: Human immunodeficiency virus type 1 integrase (Human immunodeficiency virus 1, UniProt Q7ZJM1); assay: Inhibition of HIV1 integrase strand transfer by biochemical assay
[2] = test system: Human immunodeficiency virus 1; assay: Antiviral activity against pseudo HIV1 infected in human 293T cells after 2 days by luciferase reporter gene assay; assay type: functional, organism-based; conditions: Human immunodeficiency virus 1, HEK-293T, 48 h
[3] = Therapeutic index, ratio of CC50 for human 293T cells to EC50 for HIV1; assay type: cell-based; conditions: read-out: Ratio CC50/EC50
[4] = test system: Human immunodeficiency virus 1; assay: Ratio of EC50 for pseudo HIV1 infected in human 293T cells in presence of human serum albumin to EC50 for pseudo HIV1 infected in human 293T cells; assay type: functional
[5] = test system: Human immunodeficiency virus 1; assay: Antiviral activity against pseudo HIV1 infected in human 293T cells after 2 days by luciferase reporter gene assay in presence of human serum albumin; assay type: functional, organism-based; conditions: Human immunodeficiency virus 1, HEK-293T, 48 h
[6] = Selectivity index, ratio of CC50 for human MT4 cells to EC50 for HIV13B; assay type: toxicity, cell-based; conditions: read-out: Ratio CC50/EC50
[7] = test system: Human immunodeficiency virus 1; assay: Antiviral activity against HIV1 3B infected in human MT4 cells assessed as inhibition of viral replication after 4-5 days by bioluminescence assay; assay type: functional, organism-based; conditions: Human immunodeficiency virus 1, 3B
[8] = test system: Human immunodeficiency virus 1; assay: Antiviral activity against HIV1 Ba-L infected in human PBMC cells assessed as inhibition of viral replication after 7 days by [methyl-3H]dTTP incorporation assay; assay type: functional, organism-based; conditions: Human immunodeficiency virus 1, Ba-L, 168 h

Human immunodeficiency virus type 1 integrase, sequence (Q7ZJM1 whole entry): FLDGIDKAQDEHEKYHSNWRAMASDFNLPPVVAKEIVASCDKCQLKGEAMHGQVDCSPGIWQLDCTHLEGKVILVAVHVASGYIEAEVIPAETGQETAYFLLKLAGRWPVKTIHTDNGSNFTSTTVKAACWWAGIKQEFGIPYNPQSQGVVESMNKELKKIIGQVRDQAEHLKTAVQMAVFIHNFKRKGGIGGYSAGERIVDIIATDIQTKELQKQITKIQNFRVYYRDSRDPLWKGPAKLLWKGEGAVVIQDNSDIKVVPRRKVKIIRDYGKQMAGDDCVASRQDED

Compound | IC50 [1] | EC50 [2] | EC50 [5] | EC50 [7] | selectivity ratio [3] | Ratio EC50 [4] | selectivity ratio [6] | EC50 [8]
O=C(NCc1ccc(F)cc1)c1c(O)c2ncc(Cc3ccccc3)cc2n(CCN2CCCC2=O)c1=O | 32 nM | 8 nM | 290 nM | – | 1770 | – | – | –
Nc1ccc(Cn2c(=O)c(C(=O)NCc3ccc(F)cc3)c(O)c3ncc(Cc4ccccc4)cc32)cc1 | 28 nM | 12 nM | 140 nM | – | 1130 | 12 | – | –
CC(NC(=O)c1c(O)c2ncc(Cc3ccccc3)cc2[nH]c1=O)c1ccccc1 (centres undefined) | 20 nM | 65 nM | 360 nM | – | 79 | – | – | –
O=C(NCc1ccc(F)cc1)c1c(O)c2ncc(Cc3ccccc3)cc2n(CC2CC2)c1=O | 34 nM | 30 nM | 730 nM | – | 465 | – | – | –
CS(=O)(=O)c1ccc(Cn2c(=O)c(C(=O)NCc3ccc(F)cc3)c(O)c3ncc(Cc4ccccc4)cc32)cc1 | 28 nM | 9 nM | 230 nM | – | 1430 | 25 | – | –
CCCn1c(=O)c(C(=O)NCc2ccc(F)cc2)c(O)c2ncc(Cc3ccccc3)cc21 | 18 nM | 70 nM | 640 nM | – | 99 | – | – | –
O=C(NCc1ccc(F)cc1)c1c(O)c2ncc(Cc3ccc(F)cc3)cc2n(CCN2CCCC2=O)c1=O | 14 nM | 3 nM | 140 nM | 20 nM | 5600 | – | > 400 | 11 nM
O=C(NCc1ccc(F)cc1C(F)(F)F)c1c(O)c2ncc(Cc3ccccc3)cc2[nH]c1=O | 32 nM | 39 nM | 480 nM | – | 90 | – | – | –
O=C(NCc1ccc(F)cc1)c1c(O)c2ncc(Cc3ccc(F)cc3)cc2n(CC(=O)N2CCCCC2)c1=O | 19 nM | 26 nM | 220 nM | – | 171 | 10 | – | –
O=C(NCc1ccc(F)cc1Cl)c1c(O)c2ncc(Cc3ccccc3)cc2[nH]c1=O | 35 nM | 120 nM | – | – | 117 | – | – | –

Further compounds by falling IC50 [1], results first:

IC50 [1] | EC50 [2] | EC50 [5] | EC50 [7] | Compound | selectivity ratio [3] | Ratio EC50 [4] | selectivity ratio [6] | EC50 [8]
17 nM | 8 nM | 530 nM | 66 nM | Cn1c(=O)c(C(=O)NCc2ccc(F)cc2)c(O)c2ncc(Cc3ccc(F)cc3)cc21 | 1710 | – | 453 | –
13 nM | 110 nM | – | – | O=C(NCc1ccc(F)cc1)c1c(O)c2ncccc2[nH]c1=O | 87 | – | – | –
13 nM | 19 nM | 430 nM | 37 nM | O=C(NCc1ccc(F)cc1)c1c(O)c2ncc(Cc3ccccc3)cc2[nH]c1=O | 711 | – | 108 | –
10 nM | 13 nM | 460 nM | – | COc1cccc(CNC(=O)c2c(O)c3ncc(Cc4ccc(F)cc4)cc3[nH]c2=O)c1 | 1050 | – | – | –
8 nM | 21 nM | 1100 nM | – | COc1ccc(CNC(=O)c2c(O)c3ncc(Cc4ccc(F)cc4)cc3[nH]c2=O)cc1OC | 680 | – | – | –
8 nM | 3 nM | 45 nM | 15 nM | O=C(NCc1ccc(F)cc1)c1c(O)c2ncc(Cc3ccc(F)cc3)cc2n(CC(=O)N2CCOCC2)c1=O | 2880 | – | 347 | –
7 nM | 7 nM | 440 nM | – | COc1ccc(CNC(=O)c2c(O)c3ncc(Cc4ccc(F)cc4)cc3[nH]c2=O)cc1 | 1730 | – | – | –
6 nM | 110 nM | 1540 nM | – | O=C(NCc1ccc(F)cc1)c1c(O)c2ncccc2n(C2CCCC2)c1=O | 79 | 14 | – | –
6 nM | 9 nM | 330 nM | – | COc1ccccc1CNC(=O)c1c(O)c2ncc(Cc3ccc(F)cc3)cc2[nH]c1=O | 1540 | – | – | –
6 nM | 8 nM | 280 nM | – | O=C(NCc1ccc(F)cc1)c1c(O)c2ncc(Cc3ccc(F)cc3)cc2[nH]c1=O | 1730 | – | – | –
4 nM | 10 nM | 130 nM | – | CN(C)C(=O)Cn1c(=O)c(C(=O)NCc2ccc(F)cc2)c(O)c2ncc(Cc3ccc(F)cc3)cc21 | 1150 | 10 | – | –
1 nM | 400 nM | – | – | CC(C)n1c(=O)c(C(=O)NCc2ccc(F)cc2)c(O)c2ncccc21 | 30 | – | – | –
